Literature values as cited in patent US10314848B2, “Use of testosterone and a 5-HT1A agonist in the treatment of sexual dysfunction” (EB IP LYBRIDOS B.V., priority 2006, dated 2019).

Time to peak plasma concentration after administration (in vivo)	Time to maximum plasma concentration (in vivo) [h]	half-life (single doses) [h]	SMILES
about 1 hour	–	–	CCCc1nc(C)c2c(=O)nc(-c3cc(S(=O)(=O)N4CCN(CC)CC4)ccc3OCC)[nH]n12.Cl [vardenafil, piperazine, 1-[[3-(1,4-dihydro-5-methyl-4-oxo-7-propylimidazo[5,1-f][1,2,4]triazin-2-yl)-4-ethoxyphenyl]sulfonyl]-4-ethyl-, monohydrochloride]
–	1 to 2	5.5	O=C(NCCN1CCN(c2cccc3c2OC[C@H](CO)O3)CC1)c1ccc(F)cc1 [flesinoxan]
